# Experimental data published in publication PMC12004706, “In vitro inhibition of voltage-dependent sodium currents by the antifungal drug amorolfine” (The Journal of Biological Chemistry, 2025).
# Molecular target: T1, Nav1.7 (Homo sapiens, UniProt Q15858)
# T1 construct: gene SCN9A; human Nav1.7 channels stably transfected in Expi293F cells
# Test: automated whole-cell patch clamp (Qube-384); inverse apparent IC50 vs holding potential fit with four-state binding model
# Type: cell-based
# T1 sequence (Q15858 whole entry): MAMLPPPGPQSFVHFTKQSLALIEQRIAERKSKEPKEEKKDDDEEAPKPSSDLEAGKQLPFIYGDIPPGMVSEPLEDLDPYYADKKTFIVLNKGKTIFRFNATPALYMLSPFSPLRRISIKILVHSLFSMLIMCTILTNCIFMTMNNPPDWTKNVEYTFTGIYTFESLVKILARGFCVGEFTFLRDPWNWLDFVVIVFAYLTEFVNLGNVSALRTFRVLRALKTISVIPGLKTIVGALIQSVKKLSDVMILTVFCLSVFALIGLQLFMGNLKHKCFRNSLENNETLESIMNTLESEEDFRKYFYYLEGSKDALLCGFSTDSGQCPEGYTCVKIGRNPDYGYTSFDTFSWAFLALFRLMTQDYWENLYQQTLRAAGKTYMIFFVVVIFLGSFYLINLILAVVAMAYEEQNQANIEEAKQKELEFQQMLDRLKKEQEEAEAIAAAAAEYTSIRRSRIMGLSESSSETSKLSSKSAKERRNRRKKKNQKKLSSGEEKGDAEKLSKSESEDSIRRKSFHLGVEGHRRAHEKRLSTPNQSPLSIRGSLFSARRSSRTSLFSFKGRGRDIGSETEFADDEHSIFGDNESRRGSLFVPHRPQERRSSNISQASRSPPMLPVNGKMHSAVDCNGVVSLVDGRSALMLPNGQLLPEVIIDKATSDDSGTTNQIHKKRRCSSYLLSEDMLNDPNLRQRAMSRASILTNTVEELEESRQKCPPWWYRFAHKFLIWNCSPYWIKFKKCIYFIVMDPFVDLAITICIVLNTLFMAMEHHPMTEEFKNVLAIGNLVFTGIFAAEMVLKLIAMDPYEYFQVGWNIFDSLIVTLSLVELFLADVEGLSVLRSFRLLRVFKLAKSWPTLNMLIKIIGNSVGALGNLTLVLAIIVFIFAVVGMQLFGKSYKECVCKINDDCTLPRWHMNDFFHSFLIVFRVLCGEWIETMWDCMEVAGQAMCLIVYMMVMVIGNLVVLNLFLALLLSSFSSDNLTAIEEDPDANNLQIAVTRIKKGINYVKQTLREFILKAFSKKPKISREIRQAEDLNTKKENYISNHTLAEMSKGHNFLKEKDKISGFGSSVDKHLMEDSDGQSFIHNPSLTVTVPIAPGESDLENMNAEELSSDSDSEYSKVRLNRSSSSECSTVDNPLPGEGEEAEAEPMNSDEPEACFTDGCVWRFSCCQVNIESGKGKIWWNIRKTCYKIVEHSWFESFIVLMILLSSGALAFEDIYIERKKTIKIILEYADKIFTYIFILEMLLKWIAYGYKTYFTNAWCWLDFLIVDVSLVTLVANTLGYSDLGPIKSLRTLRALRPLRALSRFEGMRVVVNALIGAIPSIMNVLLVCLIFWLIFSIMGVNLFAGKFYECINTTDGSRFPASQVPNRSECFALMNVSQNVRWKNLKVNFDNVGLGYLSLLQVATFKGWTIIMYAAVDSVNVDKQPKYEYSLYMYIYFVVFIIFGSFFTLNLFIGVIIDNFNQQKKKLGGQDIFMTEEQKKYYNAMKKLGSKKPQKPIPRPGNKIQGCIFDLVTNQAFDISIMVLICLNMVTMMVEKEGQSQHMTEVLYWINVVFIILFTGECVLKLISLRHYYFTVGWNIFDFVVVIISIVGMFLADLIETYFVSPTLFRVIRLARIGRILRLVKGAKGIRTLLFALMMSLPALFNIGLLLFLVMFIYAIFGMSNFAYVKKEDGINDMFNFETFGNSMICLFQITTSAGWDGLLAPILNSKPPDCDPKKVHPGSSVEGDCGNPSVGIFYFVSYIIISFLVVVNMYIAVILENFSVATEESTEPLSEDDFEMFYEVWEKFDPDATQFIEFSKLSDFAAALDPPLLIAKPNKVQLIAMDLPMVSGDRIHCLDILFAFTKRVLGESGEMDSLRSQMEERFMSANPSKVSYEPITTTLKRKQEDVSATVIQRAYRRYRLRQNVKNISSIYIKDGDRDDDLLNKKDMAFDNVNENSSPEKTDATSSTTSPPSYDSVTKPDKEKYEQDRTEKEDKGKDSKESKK
smiles,measurement,value
"CCC(C)(C)c1ccc(CC(C)CN2C[C@@H](C)O[C@@H](C)C2)cc1 (stereo partly shown) [AMF, amorolfine]",Ki,3.6 µM
